Results taken from patent US8309073B2, “Combination of probiotics” (Valio Ltd., priority 2001, dated 2012).
“Also recorded” adds a separate entry of the source.

Tests used:
[1] = test system: intestinal mucus; test: Adhesion of the probiotic strains to intestinal mucus; type: binding; details: for Adhesion % (+Std.): adhesion to intestinal mucus
Experimental: Adhesion of the probiotic strains to mucus was tested in accordance with Ouweland et al. (Ouwehand, A. C., Kirjavainen, P. V., Grönlund, M. -M., Isolauri, E., and Salminen, S. J. 1999. Adhesion of probiotic micro-organisms to intestinal mucus. Int. Dairy J. 9:623-630). LGG and probionic bacterium PJS adhered excellently to the intestinal mucus, Bbi99 moderately and LC705 weakly. Adhesion is a prerequisite for the microbe to produce beneficial effects in the intestines. On the other hand, LC705 is known to adhere well to epithet cells, similarly as LGG (Lehto, E. and Salminen S. 1997. Adhesion of two lactobacillus strains, one lactococcus strain and one propionibacterium strain to cultured human intestinal CaCO-2 cell lines. Bioscience Microflora 16: 13-17). This property is beneficial when there is an imbalance in the intestine and the protective mucus has been weakened.

[2] = Viability in pH-adjusted MRS broths; type: physicochemical; details: for Cell content pH 2: MRS broth adjusted with lactic acid to pH 2, 37° C.; for Cell content pH 2 / Cell content pH 3 / Cell content pH 4: 3 hours; for Cell content pH 3: MRS broth adjusted with lactic acid to pH 3, 37° C.; for Cell content pH 4: MRS broth adjusted with lactic acid to pH 4, 37° C.; for Initial content: before cultivation in pH-adjusted MRS broth
Experimental: The strains were tested at different pH values in MRS broths the pH of which had been adjusted with lactic acid to values pH 4, pH 3 and pH 2. The strain to be studied (fresh culture) was inoculated into a pH broth of 1% and grown at 37° C. for 3 hours, after which the content of live cells was determined using an agar suitable for the strain (see Table 5). The strains maintained their viability in the 3-hour process in a pH value of 3 excellently. […] In the test the bacteria were not protected by components carried by food (such as fat) and therefore they may be assumed to preserve even better when consumed in vivo together with food.

[3] = Bile salt tolerance in MRS broths with Oxgal bile salt; type: physicochemical; details: for Cell content Bile salt 0.3%: MRS broth with 0.3% Oxgal bile salt; for Cell content Bile salt 0.3% / Cell content Bile salt 0.5%: 3 hours, 37° C.; for Cell content Bile salt 0.5%: MRS broth with 0.5% Oxgal bile salt; for Initial content: before cultivation in bile salt MRS broth
Experimental: With regard to bile salt tolerance, the strains were tested in MRS broths that contained 0.3% and 0.5% of Oxgal (Sigma) bile salt by inoculating 1% of the fresh culture into the bile salt MRS broth to be studied. The strains were cultivated in the broths for 3 hours at 37° C., after which the content of live cells was determined using an agar suitable for the strain (see Table 5). All strains survived the treatment excellently.

[4] = test system: intestinal mucus; details: prior-art description of the strain; cited from earlier work
[5] = test system: cultured human intestinal CaCO-2 cell lines; details: literature / prior-art description; cited from earlier work
[6] = prior-art description of the strain; cited from earlier work

Substance | adhesion to the intestinal mucus [1] | Adhesion % (+Std.) [1] [%] | Cell content pH 2 [2] | Cell content pH 3 [2] | Cell content pH 4 [2] | Initial content [2] | Cell content Bile salt 0.3% [3] | Cell content Bile salt 0.5% [3] | Initial content [3] | adhesion to mucus (strain description) [4] | adhesion to epithelial cells [5] | viability in low pH values and high bile acid contents [6] | viability in pH 2 ([2]; pH 2, 3 hours)
Bifidobacterium infantis Bbi99 (DSM 13692) | moderately | 4.6 ± 2.3 | <10 cfu/ml | <10 cfu/ml | 2 × 10^7 cfu/ml | 1 × 10^7 cfu/ml | 1 × 10^7 cfu/ml | 1 × 10^7 cfu/ml | 3 × 10^7 cfu/ml | – | – | – | –
Lactobacillus rhamnosus GG (ATCC 53103) [LGG] | excellently | 26.3 ± 1.3 | <10^2 cfu/ml | 1 × 10^7 cfu/ml | 2 × 10^7 cfu/ml | 1 × 10^7 cfu/ml | 2 × 10^7 cfu/ml | 9 × 10^6 cfu/ml | 1 × 10^7 cfu/ml | excellent | excellent; also recorded: adhere well | survives even lower pH values as well as high bile acid contents | –
Lactobacillus rhamnosus LC705 (DSM 7061) | weakly | 0.7 ± 0.2 | <10^2 cfu/ml | 4 × 10^7 cfu/ml | 2 × 10^8 cfu/ml | 6 × 10^7 cfu/ml | 2 × 10^7 cfu/ml | 1 × 10^7 cfu/ml | 1 × 10^7 cfu/ml | weakly | moderately; also recorded: adhere well | good | –
Propionibacterium freudenreichii ssp. shermanii JS (DSM 7067) [PJS] | excellently | 24.9 ± 2.2 | 1 × 10^4 cfu/ml | 3 × 10^7 cfu/ml | 9 × 10^7 cfu/ml | 1 × 10^8 cfu/ml | 6 × 10^7 cfu/ml | 5 × 10^7 cfu/ml | 6 × 10^7 cfu/ml | – | – | excellent | remained viable
